The record followed here is paper PMC6159992, “Selective disruption of TLR2-MyD88 interaction inhibits inflammation and attenuates Alzheimer’s pathology” (The Journal of Clinical Investigation, 2018).

A short description of data set [1]: Hippocampal level of WT TIDM after intranasal administration (ESI-MS). The class given is in vivo. To be noted: male, B6SJL-Tg(APPSwFlLon,PSEN1*M146L*L286V)6799Vas/J (5XFAD), mouse, hippocampus (brain tissue), inhaled or intranasal, Tg mice, 1 intranasal dose 0.1 mg/kg BW, 60 minutes after administration, read-out: level of WT TIDM peptide in hippocampus. As to the method: It is becoming clear that glial inflammation plays an important role in the loss of neurons in AD and other neurodegenerative disorders ([7], [9], [22]–[24]). […] We first determined whether the WT TIDM peptide could enter into the hippocampus. Tg mice were treated with TIDM peptides intranasally, and after 60 minutes of administration, we detected WT TIDM peptide in the hippocampus of Tg mice by electrospray ionization–coupled mass spectrometry (ESI-MS) (Figure 5, A and C). […] The level of WT TIDM peptide was 23.33 ± 14.14 ng/g brain tissue in the hippocampus of WT TIDM–treated Tg mice compared with nil in the saline-treated Tg mice. By infrared scanning, we also detected TIDM peptide in hippocampus after intranasal treatment (Supplemental Figure 10). […]
Tg mice (6 months of age) received 1 intranasal dose of WT TIDM peptide (0.1 mg/kg BW). After 60 minutes of treatment, mice were perfused with sterile saline, and hippocampi were homogenized and supernatant analyzed for WT TIDM by ESI-MS (A, WT TIDM standard; B, untreated 5XFAD-Tg; C, WT TIDM–treated 5XFAD-Tg). […] Cells positive for Iba-1 (E, CA1; F, CA3), p-p65 (G, CA1; H, CA3), and iNOS (I, CA1; J, CA3) were counted in 2 sections (2 images/slide) from each of 6 different mice (n = 6) per group. ^†P < 0.001 versus non-Tg; ^††P < 0.001 versus Tg; 2-sample t test. […]

A further data set concerns 5XFAD-Tg mice. The data set can be described thus: Gross motor activity of 5XFAD-Tg mice. To be noted: 0.1 mg/kg BW/2 d intranasal, 30 days, n=8. Format: in vivo, mouse. An excerpt: The ultimate objective of neuroprotection in AD is to improve and/or protect memory. Major functions of the hippocampus are to generate and organize long-term memory and spatial learning. Therefore, we examined whether WT TIDM peptide protected memory and learning in Tg mice. As expected, Tg mice took much longer to find the food reward hole and had greater latency (P < 0.001 [= 0.0000213]) with higher errors (P < 0.001 [= 0.0000251]) in the Barnes maze as compared with non-Tg mice. […] Likewise, on the T-maze test, untreated Tg mice also had fewer positive turns (P < 0.001 [= 0.0000440]) and a higher number of negative turns (P < 0.001 [= 0.000223]) than did age-matched non-Tg mice (Figure 6, L and M). […] We also monitored the short-term memory of Tg mice using the novel object recognition (NOR) test. […]
treatment, hippocampal extracts of all groups of mice (n=4 per group) were analyzed for protein levels of Aβ by Western blot using 82E1 mAb. […] Results were analyzed by […]
Figure S14. […] After 30d of treatment, ELISA quantification of Aβ1-40 (A, C & E) and Aβ1-42 (B, D & F) was performed in serum (A & B) and TBS (C & D) and (TBS+Triton X-100) (E & F) extracted hippocampal tissues. […]
Figure S15. […] After 30d of treatment, hippocampal extracts of all groups of mice (n=4 per group) were analyzed for phospho-tau and total tau by Western blot. […] Results were analyzed by two-sample t-tests. […]

Data set [2] has as its target T1, cMyc-tagged C-terminal TIR domain of TLR2 protein (cTLR2), purified recombinant protein (mouse, UniProt Q9QUN7 640-784).
T1 construct: TLR2, mouse, C-terminal TIR domain, amino acids 640-784; subcloned from the full-length construct pLenti-cMyc-DDK/Tlr2 (Origene); also called cMyc-tagged cTLR2 recombinant protein; TLR2 (in the SPR methods)
Kind of data set: SPR; cTLR2 (0.8 mg/ml, PBS) immobilised on a 500-kDa carboxymethyl dextran gold sensor slide (Reichert 4SPR); WT TIDM and mTIDM peptides injected in PBS running buffer, 30 μl/min, 2.5 min association, 3 min dissociation; KD from the response at equilibrium versus peptide concentration. To be noted: both partners purified.

T1 sequence (Q9QUN7 640-784): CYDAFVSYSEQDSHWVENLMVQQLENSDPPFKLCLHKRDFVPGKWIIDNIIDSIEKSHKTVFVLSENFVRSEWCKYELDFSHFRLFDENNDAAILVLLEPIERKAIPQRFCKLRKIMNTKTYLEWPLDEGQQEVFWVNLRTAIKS

As for `CC[C@H](C)[C@H](NC(=O)[C@H](CCCCN)NC(=O)[C@@H](NC(=O)[C@H](CCC(N)=O)NC(=O)[C@H](CCCNC(=N)N)NC(=O)[C@@H](N)CC(=O)O)[C@@H](C)CC)C(=O)N[C@@H](Cc1c[nH]c2ccccc12)C(=O)N[C@@H](Cc1ccccc1)C(=O)N[C@@H](CCC(N)=O)C(=O)N[C@@H](CC(N)=O)C(=O)N[C@@H](CCCNC(=N)N)C(=O)N[C@@H](CCCNC(=N)N)C(=O)N[C@@H](CCSC)C(=O)N[C@@H](CCCCN)C(=O)N[C@@H](Cc1c[nH]c2ccccc12)C(=O)N[C@@H](CCCCN)C(=O)N[C@@H](CCCCN)C(=O)N1CCC[C@H]1C(=O)NCC(=O)N[C@@H](C)C(=O)N[C@@H](Cc1c[nH]cn1)C(=O)N[C@@H](CCC(N)=O)C(=O)N[C@@H](CCCCN)C(=O)O` [WT TIDM], the tissue level at time at 1 h in data set [1] came to 23.3 ± 14.1 ng/g. Besides, the “gross motor activity (movements, horizontal activity, rest time, stereotypy)” value in the data set on 5XFAD-Tg mice is “neither the WT TIDM nor the mTIDM peptide modulated the gross motor activity of Tg mice”. With `CC[C@H](C)[C@H](NC(=O)[C@H](CCCCN)NC(=O)[C@@H](NC(=O)[C@H](CCC(N)=O)NC(=O)[C@H](CCCNC(=N)N)NC(=O)[C@@H](N)CC(=O)O)[C@@H](C)CC)C(=O)N[C@@H](Cc1c[nH]c2ccccc12)C(=O)N[C@@H](Cc1ccccc1)C(=O)N[C@@H](CCC(N)=O)C(=O)N[C@@H](CC(N)=O)C(=O)N[C@@H](CCCNC(=N)N)C(=O)N[C@@H](CCCNC(=N)N)C(=O)N[C@@H](CCSC)C(=O)N[C@@H](CCCCN)C(=O)N[C@@H](Cc1c[nH]c2ccccc12)C(=O)N[C@@H](CCCCN)C(=O)N[C@@H](CCCCN)C(=O)N1CCC[C@H]1C(=O)NCC(=O)N[C@@H](Cc1c[nH]c2ccccc12)C(=O)N[C@@H](Cc1c[nH]cn1)C(=O)N[C@@H](CCC(N)=O)C(=O)N[C@@H](CC(=O)O)C(=O)O` [mTIDM], in the data set on 5XFAD-Tg mice, the “gross motor activity (movements, horizontal activity, rest time, stereotypy)” value is “neither the WT TIDM nor the mTIDM peptide modulated the gross motor activity of Tg mice”. Turning to DRQIKIWFQNRRMKWKKPGAHQK (Drosophila; the printed order is kept), in data set [2], the Kd worked out at 8 µM.

B1: mutated TIDM peptide (peptide)
peptide: DRQIKIWFQNRRMKWKKPGWHQD
notes: Drosophila; MyD88, mouse, residues 245-250 of the CD loop with two underlined mutations (A to W, K to D); positions 247 and 250 counted from the printed limits 245 and 250; also called mTIDM
With B1, the Kd in data set [2] was determined as 19 µM.
